Results reported in patent US20110311657A1, “Use of a Neuroprotective Extract and Pharmaceutical Preparation Thereof” (Universiti Putra Malaysia, priority 2009, published 2011).

Assays:
Type in all cases: in vivo, rat
[1] = test system: hippocampal CA1 pyramidal cells; assay: Neuron viability in hippocampal CA1 of normal and nitric oxide (NO) deficient rats; conditions: for viable pyramidal cells in CA1: nitric oxide (NO) deficient rats, 12-week L-NAME administration, FIG. 1a
Protocol: (§1) Neuroprotective activities of polyphenol-rich palm leaves extract and captopril were evaluated in normal and nitric oxide (NO) deficient rats by assessing neuron viability of three subfields in the hippocampus; CA1. CA3 and DG. […] CA3 and DG of the hippocampus, and that co-administration with palm leaves extract attenuated this effect more effectively than with captopril. The pronounced loss of neurons with L-NAME administration caused the impairment in acquisition, but not retention, of spatial memory in the radial-arm maze task and the Morris water maze task. The neuroprotective effect of palm leaves extract was not significant in normal adult rats where loss of neurons have not occurred.

[2] = test system: hippocampal CA3 pyramidal cells; assay: Neuron viability in hippocampal CA3 of normal and nitric oxide (NO) deficient rats; conditions: nitric oxide (NO) deficient rats, 12-week L-NAME administration; FIG. 1b
Protocol: as §1, with “DG. […] No significant difference in viability was observed between all 3 groups of normal rats.” for “DG.”

[3] = test system: brain superoxide dismutase (SOD); assay: Brain superoxide dismutase (SOD) activities in normal and NO deficient rats
[4] = test system: hippocampal dentate gyrus (DG) granule cells; assay: Neuron viability in hippocampal dentate gyrus of normal and nitric oxide (NO) deficient rats; conditions: nitric oxide (NO) deficient rats, 12-week L-NAME administration; FIG. 1c
Protocol: as §1, with “DG. […] The viability values of all 3 normal groups were similar.” for “DG.”

brain catalase = assay: Brain catalase in normal and NO deficient rats; conditions: normal rats, FIG. 2c
[5] = test system: brain malondialdehyde (MDA); assay: Brain malondialdehyde (MDA) concentrations in normal and NO deficient rats; conditions: normal rats, FIG. 2d

| Compound | viable pyramidal cells in CA1 [1] | CA3 pyramidal cells viability [2] [%] | superoxide dismutase (SOD) activity ([3]; L-NAME administration alone, FIG. 2a) | viable pyramidal cell count in CA1 compared to control ([1]; normal rats) | viable granule cells in dentate gyrus (DG) / neurons protected from degeneration [4] [%] | increase of superoxide dismutase (SOD) activities compared with L-NAME treated animals ([3]; nitric oxide (NO) deficient rats, FIG. 2a) [%] | superoxide dismutase (SOD) activity ([3]; normal rats) | catalase activity compared to control (brain catalase) | malondialdehyde (MDA) level [5] |
| --- | --- | --- | --- | --- | --- | --- | --- | --- | --- |
| COC(=O)[C@@H](N)CCCNC(=N)N[N+](=O)[O-] [L-NAME] | 40% | 15 | decreased |  |  |  |  |  |  |
| C[C@H](CS)C(=O)N1CCC[C@H]1C(=O)O [captopril] | partial neuroprotection | 35 |  | no significant change | 34 | 51 | maintaining | depleted significantly | maintaining |
